Species: Rattus norvegicus
Test: Open TG-GATES - Regimen: Single
Type: toxicity, organism-based, Sprague-Dawley
Set-up: regimen Single, gender Male, age 6 weeks
Conditions: in vivo, po, 300 mg/kg, route gavage, dose level Middle; for APTT / Bas / Eos / Fbg / Hb / Ht / Lym / MCH / MCHC / MCV / Mono / Neu / PT / Plat / RBC / Ret / WBC: tissue Blood; for KIDNEY_L / KIDNEY_R / KIDNEY_TOTAL: tissue Kidney; for LIVER: tissue Liver; for A/G / ALP / ALT / AST / BUN / CRE / Ca / Cl / DBIL / GLC / IP / K / LDH / Na / PL / RALB / TBIL / TC / TG / TP / gamma-GTP: tissue Plasma

CCc1cc(C(N)=S)ccn1 [ETHIONAMIDE]
TERMINAL_BW (3 h): 230.2 g
APTT (3 h): 17.6 s
Bas (3 h): 0%
Eos (3 h): 1%
Fbg (3 h): 208.2 mg/dL
Hb (3 h): 13.7 g/dL
Ht (3 h): 40.6%
Lym (3 h): 79.4%
MCH (3 h): 21.7 pg
MCHC (3 h): 33.7%
MCV (3 h): 64.3 fL
Mono (3 h): 4.8%
Neu (3 h): 15.4%
PT (3 h): 12.5 s
Plat (3 h): 121.1 x10_4/uL
RBC (3 h): 631.4 x10_4/ul
Ret (3 h): 7.4%
WBC (3 h): 69.7 x10_2/uL
KIDNEY_L (3 h): 1 g
KIDNEY_R (3 h): 1.1 g
KIDNEY_TOTAL (3 h): 2.1 g
LIVER (3 h): 11.4 g
A/G (3 h): 1.8
ALP (3 h): 771 IU/L
ALT (3 h): 30.2 IU/L
AST (3 h): 62.8 IU/L
BUN (3 h): 15.6 mg/dL
CRE (3 h): 0.6 mg/dL
Ca (3 h): 10.8 mg/dL
Cl (3 h): 102 meq/L
DBIL (3 h): 0.016 mg/dL
GLC (3 h): 200 mg/dL
IP (3 h): 9.6 mg/dL
K (3 h): 4.2 meq/L
LDH (3 h): 102.4 IU/L
Na (3 h): 141.2 meq/L
PL (3 h): 126.2 mg/dL
RALB (3 h): 3.5 g/dL
TBIL (3 h): 0.4 mg/dL
TC (3 h): 70.4 mg/dL
TG (3 h): 63 mg/dL
TP (3 h): 5.5 g/dL
gamma-GTP (3 h): 1.4 IU/L
TERMINAL_BW (6 h): 225.7 g
APTT (6 h): 18.3 s
Bas (6 h): 0%
Eos (6 h): 0.8%
Fbg (6 h): 203 mg/dL
Hb (6 h): 14.5 g/dL
Ht (6 h): 43.1%
Lym (6 h): 80.6%
MCH (6 h): 21.8 pg
MCHC (6 h): 33.6%
MCV (6 h): 64.7 fL
Mono (6 h): 6.4%
Neu (6 h): 12.4%
PT (6 h): 13.5 s
Plat (6 h): 124 x10_4/uL
RBC (6 h): 667 x10_4/ul
Ret (6 h): 7.8%
WBC (6 h): 112.6 x10_2/uL
KIDNEY_L (6 h): 1 g
KIDNEY_R (6 h): 1 g
KIDNEY_TOTAL (6 h): 2 g
LIVER (6 h): 10.7 g
A/G (6 h): 2
ALP (6 h): 845.6 IU/L
ALT (6 h): 32.8 IU/L
AST (6 h): 73.2 IU/L
BUN (6 h): 18.4 mg/dL
CRE (6 h): 0.5 mg/dL
Ca (6 h): 11.3 mg/dL
Cl (6 h): 104.2 meq/L
DBIL (6 h): 0.008 mg/dL
GLC (6 h): 188.6 mg/dL
IP (6 h): 9.8 mg/dL
K (6 h): 4.3 meq/L
LDH (6 h): 135.2 IU/L
Na (6 h): 140 meq/L
PL (6 h): 122.8 mg/dL
RALB (6 h): 3.7 g/dL
TBIL (6 h): 0.5 mg/dL
TC (6 h): 66 mg/dL
TG (6 h): 34.2 mg/dL
TP (6 h): 5.6 g/dL
gamma-GTP (6 h): 1 IU/L
TERMINAL_BW (9 h): 224 g
APTT (9 h): 18.1 s
Bas (9 h): 0%
Eos (9 h): 1.4%
Fbg (9 h): 208.6 mg/dL
Hb (9 h): 14.2 g/dL
Ht (9 h): 42.3%
Lym (9 h): 68.8%
MCH (9 h): 21.2 pg
MCHC (9 h): 33.7%
MCV (9 h): 63.1 fL
Mono (9 h): 8.4%
Neu (9 h): 21.4%
PT (9 h): 14.4 s
Plat (9 h): 119.7 x10_4/uL
RBC (9 h): 669.8 x10_4/ul
Ret (9 h): 7.6%
WBC (9 h): 69.4 x10_2/uL
KIDNEY_L (9 h): 1 g
KIDNEY_R (9 h): 1 g
KIDNEY_TOTAL (9 h): 1.9 g
LIVER (9 h): 10.1 g
A/G (9 h): 2
ALP (9 h): 660.4 IU/L
ALT (9 h): 31 IU/L
AST (9 h): 72 IU/L
BUN (9 h): 15.6 mg/dL
CRE (9 h): 0.5 mg/dL
Ca (9 h): 10.7 mg/dL
Cl (9 h): 106 meq/L
DBIL (9 h): 0.01 mg/dL
GLC (9 h): 195.2 mg/dL
IP (9 h): 10.3 mg/dL
K (9 h): 4.2 meq/L
LDH (9 h): 86.2 IU/L
Na (9 h): 143 meq/L
PL (9 h): 106.6 mg/dL
RALB (9 h): 3.6 g/dL
TBIL (9 h): 0.4 mg/dL
TC (9 h): 57.2 mg/dL
TG (9 h): 19.8 mg/dL
TP (9 h): 5.5 g/dL
gamma-GTP (9 h): 0.8 IU/L
TERMINAL_BW (24 h): 231.6 g
APTT (24 h): 17.5 s
Bas (24 h): 0%
Eos (24 h): 1%
Fbg (24 h): 194.8 mg/dL
Hb (24 h): 14.2 g/dL
Ht (24 h): 42%
Lym (24 h): 66.2%
MCH (24 h): 21.7 pg
MCHC (24 h): 33.7%
MCV (24 h): 64.3 fL
Mono (24 h): 10%
Neu (24 h): 23.2%
PT (24 h): 13.6 s
Plat (24 h): 112.3 x10_4/uL
RBC (24 h): 653.6 x10_4/ul
Ret (24 h): 7.7%
WBC (24 h): 95 x10_2/uL
KIDNEY_L (24 h): 1.1 g
KIDNEY_R (24 h): 1.1 g
KIDNEY_TOTAL (24 h): 2.2 g
LIVER (24 h): 11.3 g
A/G (24 h): 1.9
ALP (24 h): 1035.2 IU/L
ALT (24 h): 50.4 IU/L
AST (24 h): 81.6 IU/L
BUN (24 h): 15 mg/dL
CRE (24 h): 0.6 mg/dL
Ca (24 h): 10.6 mg/dL
Cl (24 h): 104.6 meq/L
DBIL (24 h): 0.028 mg/dL
GLC (24 h): 190.8 mg/dL
IP (24 h): 7.9 mg/dL
K (24 h): 4.5 meq/L
LDH (24 h): 106.2 IU/L
Na (24 h): 141 meq/L
PL (24 h): 105.2 mg/dL
RALB (24 h): 3.4 g/dL
TBIL (24 h): 0.4 mg/dL
TC (24 h): 49.8 mg/dL
TG (24 h): 77 mg/dL
TP (24 h): 5.2 g/dL
gamma-GTP (24 h): 1.4 IU/L

— ChEMBL document CHEMBL3885861, “Open TG-GATES”
